The nature of data set [1]: Photoreactivity ROS assay (OECD TG 495): singlet oxygen (SO) and superoxide anion (SA) generation. Here is the method: The photoreactivity assay was conducted to detect the generation of oxygen singlet (^1O2; SO) and superoxide anion (O2 ^−•; SA), according to OECD TG n° 495, as described in [Freitas et al. (2015)]. […] SO generation was detected by spectrophotometric measurement of p-nitrosodimethylaniline (RNO) bleaching, followed by decreased absorbance of RNO at 440 nm and SA generation was detected by observing the reduction of nitroblue tetrazolium (NBT) at 560 nm. The assay was performed in triplicate in three independent experiments.
According to the ROS Assay protocol ([OECD, 2019b]), the compound’s photoreactivity is classified according to Table 2.

A short description of data set [2]: Photostability by UV spectrophotometry, solutions in isopropanol. The format is physicochemical. Here is the method: To assess the photoprotective potential of the new UV filter’s derivative, as well as its combination with avobenzone and octyl methoxycinnamate (Cb), a photostability assay was conducted irradiating all samples at a dose of 27,6 J/cm^2 emitted by a UVA lamp (Philips UVA Actinic BL/10, Netherlands) ([ICH, 1996]; [1998]), while the negative controls were kept in a dark place. The derivative was tested at 100 μg/mL in isopropanol and the combinations Cb (avobenzone, octyl methoxycinnamate and avobenzone derivative) and Cc (avobenzone, octyl methoxycinnamate and ethylhexyl methoxycrylene were tested with a proportion of 4:8:5 (w/w), where the initial concentrations were 100 μg/mL for octyl methoxycinnamate, 50 μg/mL for avobenzone and 62.5 μg/mL for avobenzone derivative/ethylhexyl methoxycrylene. Solutions were analyzed by spectrophotometry in the 280–400 nm range. The results are expressed as a percentage of the area of irradiated samples related to the area of non-irradiated samples according to [Gaspar and Maia Campos (2006)] and [Tavares et al. (2020)].

In data set [3] the test system is 3T3 BALB/c fibroblasts. Put plainly: 3T3 Neutral red uptake phototoxicity test (3T3 NRU PT, OECD TG 432). As to conditions: UVA 9 J/cm^2. In kind it is cell-based. The procedure:
The 3t3 Neutral red uptake phototoxicity (3t3 NRU PT) test was performed in accordance to OECD TG n° 432 ([OECD, 2019a]) using 3T3 BALB/c fibroblasts cells from the Cell Bank of Rio de Janeiro (Rio de Janeiro, Brazil). Fibroblasts were cultured in DMEM supplemented with calf serum (10% v/v), L-glutamine (4 mM) and antibiotic mixture (penicillin, streptomycin and amphotericin B) and incubated at 37°C with 5% CO2. […] The initial concentration for the proportion 5:7:5 was 100 μg/mL for octyl methoxycinnamate, 71.4 μg/mL for avobenzone, and 71.4 μg/mL for avobenzone derivative. These preparations were also diluted in PBS (pH 7.2) to generate samples with 8 different concentrations in a geometric progression (constant factor = 1.47). The highest final concentration of DMSO was 1%. Fibroblasts were seeded at a density of 10^4 cell/well and after 24 h of incubation (5% CO2; 37°C), they were treated with 8 different concentrations of the combinations in the wells in sextuplicate, incubated for 1 h (5% CO2; 37°C) and irradiated with UVA radiation of 9 J/cm^2. […]
Cell viability was measured using the NRU assay with the uptake of the vital dye neutral red into cellular lysosomes. […] After measuring the absorbance of both plates at 540 nm using a microplate reader (SynergyTM 2, Biotek), all data were analyzed by Phototox Software 2.0 (ZEBET, Germany), and the mean photo effect (MPE) was calculated. […]

Data set [4] can be described thus: DPPH free radical scavenging. As to conditions: 30 min in the dark, absorbance 517 nm. The procedure: The DPPH free radical scavenging method was conducted according to [Martins et al. (2016)], with modifications. This assay is based on the reduction of the 2,2-diphenyl-1-picrylhydrazyl radical by the antioxidant agent, acting as a hydrogen donor. DPPH is a stable radical due to its molecular conformation, capable of reacting with hydrogen/electron donors, generating its reduced form, accompanied by a reduction in its absorbance (517 nm) ([Kedare and Singh, 2011]). The antioxidant activity is then determined by monitoring the change in the color of the reaction medium, changing from violet to yellow ([Pisoschi and NEgulescu, 2012]).
In a 96-well plate, 100 µL of each sample were diluted in methanol. The concentrations used for avobenzone derivative under study were […] (constant factor: 2) and quercetin was used as a positive control for the test (14–0.109 μg/mL, constant factor: 2). The plate was covered and kept in a dark place for 30 min at room temperature. The absorbance reading was performed at 517 nm using a microplate reader (Synergy™ 2#, Biotek, United States), and the results obtained were used to calculate the inhibition percentages. […] The half maximum inhibitory concentration (IC50-DPPH) was calculated using the linear equation by replacing the value of y with 50 ([Chen et al., 2013]).
Background: The DPPH test is a chemical assay of radical scavenging.

In data set [5] the test system is HaCaT keratinocytes. Put plainly: Cell viability of HaCaT keratinocytes (NRU assay). As to conditions: SDS 100 μg/mL; for Cytotoxicity for HaCaT cells: avobenzone derivative 31.25–1,000 μg/mL, vs untreated control, 70% threshold ISO 10993-5. In kind it is cell-based. The procedure: Prior to the beginning of the assay, cell viability was evaluated to exclude the possibility that the decrease in fluorescence intensity was related to cell death and not to antioxidant activity. HaCaT keratinocytes were cultured in DMEM supplemented with fetal bovine serum (10%), pyruvate (1 mM), penicillin (100 IU/mL) and streptomycin (100 μg/mL), seeded in 96-well plates (1 × 10^5 cells/well) and, 24 h later, treated with avobenzone derivative (31,25–1000 μg/mL; constant factor: 2). Cell viability was determined using the NRU assay ([Gaspar et al., 2013]; [Rangel et al., 2020]) and sodium dodecyl sulfate (SDS) was used as a positive control (100 μg/mL). Untreated cells absorbance at 540 nm were considered 100% of cell viability to calculate the percentage relative to each sample tested.

In data set [6] the test system is HaCaT keratinocytes. Put plainly: Protection against intracellular UVA-induced ROS production (DCFH2-DA probe), HaCaT monolayer. The note with it: UVA 4 J/cm^2. The format is cell-based. Here is the method: To evaluate intracellular ROS production, such as hydroxyl radical, hydrogen peroxide, nitrite and carbonate anion, the probe 2,7-dichlorodihydrofluorescein-diacetate (DCFH2-DA) was used. This probe can undergo hydrolysis by cellular esterases forming the compound DCFH, that can be converted by ROS into the fluorescent compound […] (DCF), measured at the end of the assay ([Kalyanaraman et al., 2012]; [Alam et al., 2013]). The assay was performed under the same conditions (cell type, density and exposure times) as the evaluation of cell viability in immortalized HaCaT keratinocytes.
In detail, 1 × 10^5 cells/well of HaCaT keratinocytes were seeded in 96-well plates and incubated for 24 h at 37°C in a 5% CO2 atmosphere. Then, cells were treated with the avobenzone derivative (31,25–1,000 μg/mL; constant factor: 2) for 1 h and the probe DCFH2-DA (10 µM) for 30 min, followed by 4 J/cm^2 of UVA radiation (Solar simulator Dr. Hönle type SOL-500, Planegg, Germany). This UV waveband was chosen because UVA and visible light are the most relevant radiations for ERO production ([Zastrow et al., 2009]; [Vandersee et al., 2015]). Quercetin (10 μg/mL) and norfloxacin (100 μg/mL) were used as antioxidant and pro-oxidant controls, respectively. The plates were measured using a microplate reader (Synergy™ HT, BioTek, United States) at 485 nm excitation and 528 nm emission. Results are expressed as a percentage of fluorescence in relation to the irradiated control, considered 100%.

The subject of data set [7] is reconstructed human skin (RHS). The data set is described as follows: UVA-induced intracellular ROS production (DCFH2-DA probe) in reconstructed human skin model. The note with it: 200 μg/mL, 25 µL topical 1 h; UVA 10 J/cm^2. In kind it is cell-based. Here is the method:
In-house RHS models were prepared on 24-well cell culture inserts, with primary human fibroblasts and keratinocytes from foreskin (pooled from three donors) after approval by the Ethics Committee in Research Involving Human Beings—School of Pharmaceutical Sciences of Ribeirão Preto—USP (CAAE n° 35685220.3.0000.5403; Protocol CEP/FCFRP n° 551).
Primarily, the dermal compartment consisted of collagen type I (Corning®) and 1.14 × 10^5 normal human fibroblasts that were seeded into the insert (0.4 µm pore size; ThinCert™, Greiner Bio-One GmbH, Frickenhausen—Germany) and incubated overnight. After 20 h, 3.7 × 10^5 normal human keratinocytes were seeded on the top of the dermis mixture and kept submerged in an in-house prepared culture medium for 24 h, so the cells could form a monolayer. […]
Immediately after irradiation and washing with PBS, the tissues were frozen in liquid nitrogen and 8 µm histological sections were obtained in a cryostat. Pictures were taken in an inverted Ti-S microscope (Nikon Instruments Inc., Holland), 488 nm, using 100 ms of exposure intensity and analyzed by ImageJ software ([Rasmussen et al., 2010]; [Marionnet et al., 2014]). Results of fluorescence intensity were normalized to area/pixels and expressed as percent fluorescence compared to untreated irradiated (NT + UV) control, considered 100%.

Details of data set [8]: method as in Santana Reis et al., 2014. The note with it: method not stated; ref Santana Reis et al., 2014; cited from earlier work.
Where [9] appears, read: solutions in isopropanol, UVA dose 27,6 J/cm^2, area under curve of irradiated vs non-irradiated (100%).

The text below walks through data of article PMC10937738, “Evaluation of the photoprotective and antioxidant potential of an avobenzone derivative” (Frontiers in Physiology, 2024).

Values joined by “and” are separate entries in the source; they are usually repeats but may differ in a detail not shown here. Identical values can stand only once. “Also recorded” adds a separate entry of the source.

On to `CC(C(=O)O)c1cccc(C(=O)c2ccccc2)c1` (stereo not drawn) [Ketoprofen, ketoprofen], for which the “SA (superoxide anion generation, NBT reduction at 560 nm)” value in data set [1] (avobenzone derivative 1.0 mM, mean ± SEM, n = 3) is listed as 116 ± 20.6.

By LogP is commonly meant the decadic logarithm of the partition coefficient of the neutral form, usually between octanol and water. As to `O=C(N/N=C/c1ccc(O)cc1)c1ccc(O)cc1` [avobenzone derivative, (E)-4-hidroxi-N’-(4-hydroxybenzylidene)benzohydrazide], in data set [2] (setting [9]), the “Remaining absorption values after irradiation (%) UVA” value came to 97.7 ± 2.5%. The “Remaining absorption values after irradiation (%) UVB” value in data set [2] (setting [9]) is listed as 97.8 ± 2.1%. Also, the Stability classification result in data set [2] (solutions, irradiated vs non-irradiated pair (p < 0.05 = photounstable)) is recorded as “Photostable”. The “Classification (photoreactivity)” value in data set [1] is “Non-photoreactive”. The “Prediction model (phototoxicity)” value in data set [3] (OECD TG 432) is “non phototoxic; also recorded: Non-Phototoxic”. Also, the “IC50 (DPPH)” value in data set [4] stood at 18.2 ± 10.2 µg/mL. In data set [5], the “Cytotoxicity for HaCaT cells” value is recorded as “not cytotoxic”. In addition, the “Reduction in ROS generation compared to NT + UV” value in data set [6] (125 μg/mL) stood at 37%; in data set [6] (250 μg/mL), 31%; in data set [6] (500 μg/mL), 58%; in data set [7], 30.7%. In addition, the “ROS values higher than NT + UV (possible pro-oxidant effect)” value in data set [6] (1,000 μg/mL) worked out at 5%. Further, the LogP in data set [8] is 1.32 ± 0.52.

For the compound `O=c1c(O)c(-c2ccc(O)c(O)c2)oc2cc(O)cc(O)c12` [quercetin, reference compound], in data set [4], the “IC50 (DPPH)” value amounted to 2.85 ± 1.03 µg/mL. For the same compound, the “Decrease of ROS production compared to NT + UV” value in data set [6] (10 μg/mL) is reported as “approx. 67%”.

In the case of `N[C@@H](Cc1c[nH]cn1)C(=O)O` [L-histidine], the “Classification (photoreactivity)” value in data set [1] is “Non-photoreactive”.

With `CCCCCCCCCCCCOS(=O)(=O)[O-].[Na+]` [SDS, sodium dodecyl sulfate], the Cell viability in data set [5] (untreated cells = 100%) is on record as less than 70%. Moreover, the “Cytotoxicity for HaCaT cells” value in data set [5] is “cytotoxic”.

With `CCn1cc(C(=O)O)c(=O)c2cc(F)c(N3CCNCC3)cc21` [Norfloxacin, reference compound], in data set [3] (Phototox Software 2.0, one value per independent experiment (two)), the “MPE (mean photo effect)” value was 0.568 and 0.520. Also, in data set [6] (100 μg/mL), the “Increase of ROS production compared to NT + UV” value was “approx. 46%”.
